Assay results published in patent publication US20100104536A1, “P38 INHIBITORS” (priority 2007, published 2010).

Columns and labels:
IL-12p40 = experiment: Cytokine suppression in splenocytes: IL-12p40; type: cell-based, Balb/C mice; details: 48 hrs
Description: (§1) Naïve Balb/C mice were randomized in two groups. Mice from groups 1 and 2 were sacrificed and spleens were isolated. The Splenocytes were isolated and cultured in RPMI […] 1640 media with 10% FBS and 1% antibiotics in microtitre plate. Group 1 was incubated with PBS while group 2 was incubated with 10̂8 Mw cells. After 48 hrs the cell supernatant was separated and the levels of cytokines were checked using commercial kit from R & D systems (Cat # M2000, Cat # M4000B, Cat # M1240).
(§2) Naïve Balb/C mice were sacrificed and spleens were isolated for all five groups. The splenocytes were isolated from each group and cultured in RPMI 1640 media with […] in microtitre plate. The cells were plated in micro titer plate. The wells were divided into five sets. Set one was the control, set two was stimulated with Mw, set three with 10 mM of Dexamethasone set four with 10 mcM (micro mole) of Dexamethasone and set five with 1 mcM of dexammethasone. After 48 hrs of culture the cells were harvested and the cytokine assays were performed using commercial kits from R&D systems. (Cat #M5000, Cat #M4000B, Cat #M2000, Cat #M1240)

IL-4 = experiment: Cytokine suppression in splenocytes: IL-4; type: cell-based, Balb/C mice; details: 48 hrs
Description: as §1, §2

IL-5 = experiment: Cytokine suppression in splenocytes: IL-5; type: cell-based, Balb/C mice; details: 48 hrs
Description: as §1, §2

[1] = after administration of 200 mg of Dexamethasone intravenously; cited from earlier work
IL-2 = experiment: Cytokine suppression in splenocytes: IL-2; type: cell-based, Balb/C mice; details: 48 hrs
Description: as §1, §2

SMILES: C[C@@H]1C[C@H]2[C@@H]3CCC4=CC(=O)C=C[C@]4(C)[C@@]3(F)[C@@H](O)C[C@]2(C)[C@@]1(O)C(=O)CO [Dexamethasone]
- In vitro % inhibition of IL-12p40 (IL-12p40; Dexamethasone 1 mcM): 33.7%
- In vitro % inhibition of IL-12p40 (IL-12p40; Dexamethasone 10 mcM): 47.1%
- inhibition at 10000 µM (IL-12p40; Mus musculus, Splenocyte, Dexamethasone 10 mM, read-out: In vitro % inhibition of IL-12p40): 57.7%
- In vitro % inhibition of IL-4 (IL-4; Dexamethasone 1 mcM): 61.9%
- In vitro % inhibition of IL-4 (IL-4; Dexamethasone 10 mcM): 84.5%
- inhibition at 10000 µM (IL-4; Mus musculus, Splenocyte, Dexamethasone 10 mM, read-out: In vitro % inhibition of IL-4): 93.7%
- In vitro % inhibition of IL-5 (IL-5; Dexamethasone 1 mcM): 43.9%
- In vitro % inhibition of IL-5 (IL-5; Dexamethasone 10 mcM): 70.3%
- inhibition at 10000 µM (IL-5; Mus musculus, Splenocyte, Dexamethasone 10 mM, read-out: In vitro % inhibition of IL-5): 85.8%
- Cmax [1]: 10000 µM
- In vitro % inhibition of IL-2 (IL-2; Dexamethasone 1 mcM): 25.6%
- In vitro % inhibition of IL-2 (IL-2; Dexamethasone 10 mcM): 33.7%
- inhibition at 10000 µM (IL-2; Mus musculus, Splenocyte, Dexamethasone 10 mM, read-out: In vitro % inhibition of IL-2): 70.6%
